Laboratory results: US7615574B2, “Synergistic composition for treating leukemia” (Council of Scientific and Industrial Research, priority 2002, dated 2009)
Like-named read-outs stand apart in the source and are kept apart here.

Columns and labels:
[1] = tested on: U937 Promonocyte cell line; test: CA, PCQ and combination: growth inhibition of U937 (2×10^6 cells per ml per well); format: cell-based, human; conditions: for percentage growth inhibition of promonocyte cells: concentration not given
[2] = tested on: Molt 4 (T lymphoid Cell line); test: Growth inhibition of T lymphoid cell line Molt 4 by CA in vitro; format: cell-based; conditions: Homo sapiens, 1 × 10^5 cells per ml per well, read-out: Percentage Inhibition of Cell Growth; for inhibition at 50 µg/mL: CA 50.0 μg/ml; for inhibition at 100 µg/mL: CA 100.0 μg/ml; for inhibition at 200 µg/mL: CA 200.0 μg/ml
From the text: Culture of T-Lymphoid cell line Molt-4. This cell line was obtained from American Type culture collection (ATCC), VA, USA and grown in vitro as described for the cell line K562.

CML patient's PBMC = test: Incubation of CML patient's PBMC with CA, viable cell count (growth inhibition); format: cell-based, human; conditions: PBMC / leukemic cells of CML patient
Description: Whole blood (10 ml each) was drawn from previously diagnosed myeloid leukemic patients, one patient was diagnosed as AML and the other one was diagnosed as CML. Mononuclear cells were separated by Ficoll/hypaque density gradient centrifugation. PBMC (1×10^5-2×10^6/ml) of myeloid leukemia patients were incubated with varied concentrations of CA for 48 hours at 37° C. in 5% CO2. Cells were then washed and counted for viability.

[3] = tested on: CML Patient's Leukemic cells; test: Analysis of cell cycle progression and apoptosis by Flow cytometry (propidium iodide); format: cell-based, human; conditions: 100.0 μg/ml; two days of culture
Description: Analysis of cell cycle progression and apoptosis by Flow cytometry PBMC of a CML patient was cultured in RPMI-1640 medium supplemented with 10% […] fetal bovine serum in the presence or absence of CA (100.0 μg/ml) for 48 hr. at 37° C. in 5% CO2. Cells were fixed with 40% ethanol treated with 500 μg/ml Rnase A, and then with 69 μM propidium iodide for analysis of DNA content by Flow Cytometry as described (Mitra et al., Molecular Medicine, 6:527-541, 2000).

[4] = tested on: K 562 Erythroleukemia cell line; test: CA, PCQ and combination: growth inhibition of K562 (2×10^6 cells per ml per well); format: cell-based, human; conditions: for percentage growth inhibition of Erythroleukemia cells: concentration not given
[5] = tested on: CML Patient's Leukemic cells; test: CA, PCQ and combination: growth inhibition of CML patient's leukemic cells (2×10^6 cells per ml per well); format: cell-based, human; conditions: for percentage growth inhibition of CML's leukemic cells: concentration not given
leukemia cells = test: Biological activity of Piper betel HPLC zones and peaks: destruction of leukemic cells; format: cell-based; conditions: HPLC zones and peaks of Fraction E of Piper betel leaf extract
From the text: Collected material was examined for biological activity i.e. destruction of leukemic cells. […] 10 gm of above-mentioned material was loaded on Sephadex LH-20 column and chromatographed with water, water-methanol (1:1) and methanol as eluent. Three different fractions thus obtained from three different solvent systems were separately checked for biological activity. The activity was located only on
Fraction 2 i.e. Methanol-water (1:1) and termed as fraction E. Fraction E was then subjected to HPLC analysis using Intersil ODS-3 analytical column. The column was equilibrated with methanol-water-acetic acid (23:76:1), flow rate was maintained at 1.0 ml per min and peaks were identified at 280 nm. According to the retention time (RE) different peaks could be divided into three zones, ZA, ZB and ZC (FIG. 1). ZA had 4 major peaks whereas ZB had very small to moderate 10 peaks and ZC had two distinct peaks. It was convenient to observe biological activity of three zones AA, ZB and ZC, which were separately tested on leukemia cells for destructive activity.
The Zone ZB contained 10 peaks (1 to 10) of varied sizes. […] For this reason all different peaks were separately monitored for biological activity. […] On searching for activity of these peaks i.e. 1,5,6,7,9 and 10 corresponding to Rt 5.16, 8.34, 9.16, 9.86, 13.94 and 14.68 respectively. […]

Normal individual's PBMC = test: CA, PCQ and combination: growth inhibition of normal individual's PBMC (2×10^6 cells per ml per well); format: cell-based, human
From the text: Preparation of peripheral blood mononuclear cells (PBMC) from normal individuals. Whole blood was collected and mononuclear cells were separated by Ficoll/Hypaque density gradient centrifugation.
The number of cells used was 2×10^6 per ml per well.

For `O=C(/C=C/c1ccc(O)c(O)c1)O[C@@H]1C[C@](O)(C(=O)O)C[C@@H](O)[C@H]1O` (single isomer, unassigned) [CA, Chlorogenic acid], the inhibition at 25 µg/mL ([1]; Homo sapiens, U-937, 24 h, U937, single compound 25.0 μg/ml, 1 day, 2×10^6 cells per ml per well, read-out: % Inhibition of cell growth (After 1 day of incubation)) was no more than 16.7%, the “percentage growth inhibition of promonocyte cells” value [1] was “about 25%” and the inhibition at 50 µg/mL ([2]; 24 h, 1 day) was 3.57%. For the same molecule, the inhibition at 100 µg/mL ([2]; 24 h, 1 day) was 6.89%, the inhibition at 200 µg/mL ([2]; 24 h, 1 day) was 13.8% and the inhibition at 50 µg/mL ([2]; 48 h, 2 days) was 6.67%. It also gave an inhibition at 100 µg/mL ([2]; 48 h, 2 days) of 14.7%, an inhibition at 200 µg/mL ([2]; 48 h, 2 days) of 46.7% and an inhibition at 100 µg/mL ([2]; 72 h, 3 days) of 18.8%. The “destruction of cells (in words)” value (CML patient's PBMC) was “destroyed”, the “apoptosis in CML patients Leukemic cells in vitro (cell-cycle analysis)” value [3] was “caused apoptosis” and the “percentage growth inhibition of Erythroleukemia cells” value [4] was “about 30%”. For the same molecule, the inhibition at 25 µg/mL ([5]; Homo sapiens, 24 h, CML patient's leukemic cells, single compound 25.0 μg/ml, 1 day, 2×10^6 cells per ml per well, read-out: % Inhibition of cell growth (After 1 day of incubation)) was no more than 2.38%, the inhibition at 50 µg/mL ([5]; Homo sapiens, 24 h, CML patient's leukemic cells, single compound 50.0 μg/ml, 1 day, 2×10^6 cells per ml per well, read-out: % Inhibition of cell growth (After 1 day of incubation)) was 4.67% and the “percentage growth inhibition of CML's leukemic cells” value [5] was “about 5%”. For the same molecule, the “biological activity i.e. destruction of leukemic cells (in words)” value (leukemia cells) was “detectable activity”.

With `O=C(C=Cc1ccc(O)cc1)OC1CC(O)(C(=O)O)CC(O)C1O` (stereo not shown) [PCQ, 3-o-p-Coumaryl quinic acid] the “% Inhibition of cell growth (After 1 day of incubation)” value (“% Inhibition of cell growth” for short) ([1]; U937, single compound 50.0 μg/ml, 1 day, 2×10^6 cells per ml per well) was 4.17%, the “percentage growth inhibition of promonocyte cells” value [1] was “about 5%” and the “% Inhibition of cell growth” value (Normal individual's PBMC; single compound 25.0 μg/ml) was 0.00%. The “% Inhibition of cell growth” value (Normal individual's PBMC; single compound 50.0 μg/ml) was 1.67%, the “% Inhibition of cell growth” value ([4]; K 562, single compound 50.0 μg/ml, 1 day, 2×10^6 cells per ml per well) was 8.00% and the “percentage growth inhibition of Erythroleukemia cells” value [4] was “about 8%”. The “% Inhibition of cell growth” value ([5]; CML patient's leukemic cells, single compound 50.0 μg/ml, 1 day, 2×10^6 cells per ml per well) was 4.67%, the “percentage growth inhibition of CML's leukemic cells” value [5] was “about 5%” and the “biological activity i.e. destruction of leukemic cells (in words)” value (leukemia cells) was “demonstrated considerable activity”.
